Patent publication US11857634B2, “Cationic amphiphilic polymers for codelivery of hydrophobic agents and nucleic acids” (University of Pittsburgh—Of the Commonwealth System of …, priority 2018, dated 2024)
Values after ≈ are worked out from the molar mass of the structure shown. “Also recorded” adds a separate entry of the source.

Tests used:
[1] = test system: 4T1.2 cells; assay: In vitro cytotoxicity, MTT assay (POEG-PCre formulations); assay type: cell-based, murine; conditions: 48 h; DOX 7.8-1,000 ng/mL, tRNA-mir 0.78-100 nM, carrier 78-10000 ng/mL
Method: The in vitro cytotoxicity of DOX+tRNA-mir-34a co-loaded POEG-PCre micelles was evaluated by MTT assay. Tumor cells were treated with various formulations for 48 h, with the doses of DOX, tRNA-mir, and POEG-PCre carrier ranging from 7.8 to 1,000 ng/mL, 0.78 nM to 100 nM, and 78 ng/mL to 10000 ng/mL, respectively. […] A similar trend was also observed in MDA-MB-231 breast cancer cells (FIG. 14B).

[2] = test system: Dicer; assay: Induction of Dicer after treatment; assay type: cell-based; conditions: dose dependent
[3] = test system: 4T1.2 cells; assay: Intracellular co-delivery of DOX and MFP488-labeled tRNA-mir-34a, confocal microscopy; assay type: cell-based, murine; conditions: 4 h
Method: To monitor intracellular co-delivery of DOX and tRNA-mir-34a, tRNA-mir-34a was labeled with MFP488 fluorescent dye to visualize the cell uptake of tRNA-mir-34a along with red fluorescence of DOX. 4T1.2 cells were incubated for 4 h with micelle complexes carrying DOX and/or MFP488-labeled tRNA-mir-34a and then observed under a confocal microscope. Naked tRNA-mir-34a without any transfection agent was used as a negative control.

[4] = Intracellular uptake and distribution of DOX at pH 6.8 and 7.4, CLSM; assay type: cell-based; conditions: 4 h incubation
Source text: Intracellular uptake and distribution of DOX-loaded micelles and IL-12/DOX co-loaded PMet-P(cdmPEG2K) micelleplexes was investigated by CLSM.

[5] = Toxicity: body weight, blood chemistry, H&E staining of major organs; set-up: species or system mice; conditions: mouse, in vivo
Method: In addition, blood chemistry tests were performed to evaluate the effect of our formulations on liver and kidney functions. […] Moreover, the H & E staining of major organs was carried out to further evaluate the potential toxicity of different treatments.

[6] = In vitro DOX release from POEG-st-Pmor micelles by dialysis; assay type: physicochemical; conditions: first 4 hours, PBS, 37 °C
Method: In vitro drug release study for POEG-st-Pmor micelles. The in vitro DOX release kinetics for the POEG-st-Pmor micelles was determined by a dialysis method. Briefly, 0.5 ml of DOX-loaded micelles and micelles co-loaded with DOX and IL-36γ plasmid at a DOX concentration of 0.5 mg/mL were placed into a dialysis bag (MW cutoff 3,500), respectively. The dialysis bag was incubated in 100 mL PBS with gentle shaking at 37° C. Two ml of PBS solution outside of the dialysis bag was collected at different time points and equal amount of fresh PBS was added back. The concentrations of released DOX were determined by HPLC.

[7] = test system: breast cancer cells; assay: Apoptosis assay, Annexin V/propidium iodide flow cytometry; assay type: cell-based
Method: The enhanced cytotoxicity of DOX+tRNA-mir-34a-co-loaded nanocomplexes was assessed via apoptosis assay. Cell apoptosis was evaluated quantitatively by Annexin V/propidium iodide flow cytometry.

[8] = test system: 4T1.2 tumor metastasis; assay: Breast cancer lung metastasis model (4T1.2), POEG-PCre formulations; assay type: in vivo, mice; conditions: i.v. every 3 d for 3 times, analysed 5 days after last treatment
Method: The in vivo anti-tumor efficacy of DOX+tRNA-mir-34a co-loaded nanocomplexes was evaluated in a breast cancer lung metastasis model, generated by tail-vein injection of 4T1.2 tumor cells into female Balb/c mice. Five days after tumor inoculation, various treatments were applied to each group of mice (n=5) via i.v. administration every 3 d for 3 times. The tumor burdens in the lungs were analyzed 5 days after the last treatment. […] No significant decrease of body weight was observed, indicating the safety of the formulation (FIG. 15C).
To further confirm the anticancer efficacy, H&E staining and immunohistochemical analysis of Ki67 were performed in tumor-bearing lungs.

[9] = Cellular uptake of DOX by confocal laser scanning microscopy (POEG-st-Pmor); assay type: cell-based; conditions: 2 h of incubation
Source text: The cellular uptake of DOX-loaded POEG-st-Pmor micelles was investigated by confocal laser scanning microscopy with free DOX as a control. […] This may, for example, be a result of different cellular uptake routes of free DOX and DOX micelles.

[10] = DOX release from POEG-PCre micelles by dialysis against DPBS; assay type: physicochemical; conditions: first 4 h, DPBS pH 7.4, 37 °C
Method: The release kinetics of DOX from DOX-loaded POEG-PCre micelles was investigated by dialysis against DPBS of pH 7.4 at 37° C. […] To the contrary, only 16% of DOX was released from DOX/POEG-PCre micelles in first 4 h, and less than 40% of DOX was released for an extended period of 96 h.

[11] = test system: immune cells in lung tissues; assay: Tumor-infiltrating lymphocytes and MDSCs in tumor-bearing lungs, flow cytometry (POEG-st-Pmor); assay type: in vivo, mice; conditions: compared to untreated control group
Method: Analysis of tumor-infiltrating lymphocytes and myeloid-derived suppressor cells. Lung tissues were collected in serum free RPMI medium and cut mechanically with scissors. Liberase TL (0.3 mg/ml) and DNase I (0.3 mg/ml) were used to digest the lung tissues and tumor nodules. Tissues were further grinded and filtered through a […] cell strainer. TILs and MDSC cells were further purified and stained with fluorescence-labeled antibody for flow cytometry analysis using a FACS flow cytometer.

[12] = test system: 4T1.2 breast cancer cells; assay: In vitro cytotoxicity, MTT assay (POEG-st-Pmor formulations); conditions: 4T1.2 cells, 72 h
Method: Briefly, 4T1.2 cells (2,000 cells/well) were seeded in 96-well plates for overnight and were treated with various concentrations of DOX formulations for 72 h. MTT solution was added to each well and MTT formazan was solubilized by DMSO after 2 h of incubation. The absorbance in each well was measured by a microplate reader at a wavelength of 570 nm. Cell viability was calculated as [(ODtreat−ODblank)/(ODcontrol−ODblank)×100%]. The cytotoxicity of POEG-st-Pmor micelles alone was similarly tested in 4T1.2 cells as described above.

[13] = test system: 4T1.2 breast cancer lung metastasis; assay: Mouse model of breast cancer lung metastasis (4T1.2), POEG-st-Pmor formulations; assay type: in vivo, mice; conditions: i.v. every three days for three times; DOX 5 mg/kg, plasmid 50 μg per mouse
Method: Mouse model of breast cancer lung metastasis. Female Balb/c mice were injected with 2×10^5 4 T1.2 cells through the tail vein. Five days after tumor cell injection, mice were randomly divided into 6 groups. POEG-st-Pmor was chosen as a representative carrier system for codelivery of IL-36γ plasmid and DOX. […] The PBS treatment group was used as control. DOX dosage was 5 mg/kg and plasmid dosage was 50 μg per mouse. Lung tissues were harvested and weighted 11 days after the first injection. Pulmonary metastases were enumerated by intra-tracheal injection of India ink solution. India ink-injected lungs were washed in Feket's solution (300 ml 70% EtOH, 30 ml 37% formaldehyde and 5 ml glacial acetic acid) and white tumor nodules against a dark blue lung background were counted.
Histopathological analysis. The lung tissues were harvested and fixed in 10% formalin after the above treatments. The fixed samples were then embedded in paraffin and the tissue sections were stained with hematoxylin/eosin and analyzed for the presence of metastases under microscope. The total number of metastases per lung section was counted in different treatment groups.

[14] = test system: 4T1.2 cancer cells; assay: Cell migration, wound closure assay; assay type: cell-based, murine; conditions: 4T1.2, 24 h
Source text: Besides cancer cell viability, cell migration represents a critical process for tumor progression and metastasis. MiR-34a has been reported to be functional as an anti-metastatic miRNA by directly targeting CD44 and NOTCH-1. Therefore, the effect of tRNA-mir-34a and DOX co-loaded nanocomplexes on the cell migration was investigated using the wound closure assay.

[15] = test system: immune cells in tumor-bearing lungs; assay: Immune cells in tumor-bearing lungs (POEG-PCre formulations); set-up: species or system mice; conditions: mouse, in vivo
Source text: Treatment with tRNA-mir-34a alone or tRNA-mir-34a/DOX combination reduced the numbers of PD1+ CD8 cells (FIG. 16D) and T-regulatory cells (Tregs) (FIG. 16E).

Q: Which results are given for `COc1cccc2c1C(=O)c1c(O)c3c(c(O)c1C2=O)C[C@@](O)(C(=O)CO)C[C@@H]3O[C@H]1C[C@H](N)[C@H](O)[C@H](C)O1` [free DOX, Doxorubicin]?
A: Cell growth inhibition / cytotoxicity [1]: inhibited the proliferation of tumor cells in a dose dependent manner; Dicer expression [2]: induction of Dicer; Intracellular location of fluorescence signals [3]: largely found in the nucleus; Cellular uptake compared with DOX-loaded micelles [4]: slightly stronger fluorescence signal; Intracellular DOX fluorescence at pH 6.8 versus pH 7.4 [4]: not significantly affected by pH; Pathological changes, H&E staining of major organs [5]: signs of myocytolysis and myofibrillolysis with fibrils dearrangement; also recorded: hepatocellular vacuolation; DOX released [6]: 80%; Cell apoptosis [7]: ~31%; Inhibition of lung metastasis / tumor nodules in lungs [8]: Dramatic reduction in the number of tumor nodules; Intracellular location of DOX signals [9]: largely found in the nucleus; DOX released [10]: more than 80%; CD4+ T cells in lung tissues [11]: significant increase; CD8+ T cells in lung tissues [11]: significant increase; Cytotoxicity ([12]; DOX 4 to 1000 ng/mL): dose-dependent cell killing profile; IC50 ([12]; MTT, as DOX): 0.13 µg/mL (≈ 0.239 µM); Antitumor activity / inhibition of lung metastasis [13]: significant inhibition of lung metastasis; also recorded: significant activity; Inhibition of cell migration [14]: ~40%; Numbers of CD4 cells in tumor-bearing lungs [15]: significant increase; Numbers of CD8 cells in tumor-bearing lungs [15]: significant increase; Numbers of MDSC [15]: trend of decreases; Numbers of functional CD8 (IFN-γ+ CD8) cells [15]: trend of increase
